How the values were obtained:
Format in all cases: in vivo
Stellaria media = assay: Test Example 5: herbicidal effect by foliage application, plastic box (symbol P); details: 320 g/ha, 3 weeks after application
Method in brief: (§1)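 Seeds were sown in sterilized diluvial soil, covered with about 1.5 cm of soil and grown 14 days in a greenhouse at 25° C. to 30° C. An emulsifiable formulation diluted in water to a set rate was sprayed over foliage, and injury was scored 3 weeks later.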

Veronica persica = assay: Test Example 4: herbicidal effect by soil treatment (symbol R); details: application herbicide amount 320 g/ha
Method in brief: (§2)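 Seeds were sown in sterilized diluvial soil, covered with about 1.5 cm of soil, and the soil surface was sprayed with a water-diluted emulsion of the compound at a predetermined rate. Plants grew in a greenhouse at 25° C. to 30° C.; effects were scored visually 3 weeks after application.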

wheat = assay: Test Example 4: effect on crop by soil treatment (symbol e); details: application herbicide amount 320 g/ha
Method in brief: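 Seeds were sown in spots on sterilized diluvial soil in a plastic box and covered with about 1.5 cm of soil. Plants were then grown in a greenhouse at 25° C. to 30° C.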

Lolium multiflorum Lam. [1] = assay: Test Example 4: herbicidal effect by soil treatment (symbol K); details: application herbicide amount 320 g/ha
Method in brief: as §2

[2] = tested on: Echinochloa crus-galli var. crus-galli; assay: Test Example 3: herbicidal effect by foliage application, Wagner pot (symbol H); details: application herbicide amount 320 g/ha
Method in brief: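 The compound, formulated as an emulsion and diluted with water to a predetermined rate, is applied uniformly to leaves of two-week-old seedlings growing in submerged alluvial soil at 25–30 °C. Rice is included. Each plant is assessed 3 weeks later using defined criteria.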

Alopecurus myosuroides = assay: Test Example 5: herbicidal effect by foliage application, plastic box (symbol J); details: 320 g/ha, 3 weeks after application
Method in brief: as §1

Setaria viridis = assay: Test Example 4: herbicidal effect by soil treatment (symbol G); details: application herbicide amount 320 g/ha
Method in brief: as §2

transplanted rice plant = assay: Test Example 1: effect on crop, application before weed generation in submerged conditions (symbol a); details: application herbicide amount 320 g/ha
Method in brief: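 Alluvial soil pots flooded to 4 cm water, sown with Echinochloa oryzacola, Scirpus juncoides and Monochoria vaginalis, then transplanted with 2.5 leaf stage rice seedlings; pre-emergence application. Greenhouse 25° C. to 30° C.; scored 0–5 by herbicidal ratio 3 weeks after application.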

beet = assay: Test Example 5: effect on crop by foliage application, plastic box (symbol f); details: 320 g/ha, 3 weeks after application
Method in brief: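 Plants were raised from seed in a greenhouse (25° C. to 30° C.) after sowing in a plastic box of sterilized diluvial soil.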

Amaranthus retroflexus = assay: Test Example 4: herbicidal effect by soil treatment (symbol N); details: application herbicide amount 320 g/ha
Method in brief: as §2

Chenopodium album [3] = assay: Test Example 5: herbicidal effect by foliage application, plastic box (symbol O); details: 320 g/ha, 3 weeks after application
Method in brief: as §1

Lolium multiflorum Lam. [4] = assay: Test Example 5: herbicidal effect by foliage application, plastic box (symbol K); details: 320 g/ha, 3 weeks after application
Method in brief: as §1

Digitaria ciliaris [5] = assay: Test Example 5: herbicidal effect by foliage application, plastic box (symbol F); details: 320 g/ha, 3 weeks after application
Method in brief: as §1

Chenopodium album [6] = assay: Test Example 4: herbicidal effect by soil treatment (symbol O); details: application herbicide amount 320 g/ha
Method in brief: as §2

Digitaria ciliaris [7] = assay: Test Example 4: herbicidal effect by soil treatment (symbol F); details: application herbicide amount 320 g/ha
Method in brief: as §2

[8] = tested on: directly sowed rice plant; assay: Test Example 3: effect on crop by foliage application, Wagner pot (symbol b); details: application herbicide amount 320 g/ha
Method in brief: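 Alluvial soil in a 1/10000-are Wagner pot was flooded to a water depth of 0.1–0.5 cm. Echinochloa crus-galli var. crus-galli, Leptochloa chinensis, Cyperus difformis and rice were sown into it and grown in a greenhouse at 25–30 °C.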

Abutilon theophrasti = assay: Test Example 5: herbicidal effect by foliage application, plastic box (symbol M); details: 320 g/ha, 3 weeks after application
Method in brief: as §1

Row | SMILES | P: Stellaria media, herbicidal effect (criteria of Test Example 1) (Stellaria media) | herbicidal effect on H (Echinochloa crus-galli var. crus-galli), grade 0-5 [2] | J: Alopecurus myosuroides, herbicidal effect (criteria of Test Example 1) (Alopecurus myosuroides) | Effect grade on crop, a: transplanted rice plant (transplanted rice plant) | f: beet, effect on crop (criteria of Test Example 1) (beet) | O: Chenopodium album, herbicidal effect (criteria of Test Example 1) (Chenopodium album [3]) | K: Lolium multiflorum Lam., herbicidal effect (criteria of Test Example 1) (Lolium multiflorum Lam. [4]) | F: Digitaria ciliaris, herbicidal effect (criteria of Test Example 1) (Digitaria ciliaris [5]) | effect on crop b (directly sowed rice plant), grade 0-5 [8] | Herbicidal effect grade, R: Veronica persica (Veronica persica) | M: Abutilon theophrasti, herbicidal effect (criteria of Test Example 1) (Abutilon theophrasti) | Effect on crop grade, e: wheat (wheat) | Herbicidal effect grade, K: Lolium multiflorum Lam. (Lolium multiflorum Lam. [1]) | Herbicidal effect grade, G: Setaria viridis (Setaria viridis) | Herbicidal effect grade, N: Amaranthus retroflexus (Amaranthus retroflexus) | Herbicidal effect grade, O: Chenopodium album (Chenopodium album [6]) | Herbicidal effect grade, F: Digitaria ciliaris (Digitaria ciliaris [7]) | other results
1 | CON=C(C)CC1CC(O)=C(c2c(C)cc(-c3ccc(F)cc3)cc2C)C1=O (mixture of isomers) [6-058] | 5 (Herbicidal ratio of 90% or more (almost completely withered)) | 5 (Herbicidal ratio of 90% or more (almost completely withered)) | 5 (Herbicidal ratio of 90% or more (almost completely withered)) | 5 (Herbicidal ratio of 90% or more (almost completely withered)) | 5 (Herbicidal ratio of 90% or more (almost completely withered)) | 5 (Herbicidal ratio of 90% or more (almost completely withered)) | 5 (Herbicidal ratio of 90% or more (almost completely withered)) | 5 (Herbicidal ratio of 90% or more (almost completely withered)) | 5 (Herbicidal ratio of 90% or more (almost completely withered)) | – | – | – | – | – | – | – | – | R: Veronica persica, herbicidal effect grade (Veronica persica): 5 (Herbicidal ratio of 90% or more (almost completely withered)); e: wheat, effect on crop grade (wheat): 5 (Herbicidal ratio of 90% or more (almost completely withered)); K: Lolium multiflorum Lam., herbicidal effect grade (Lolium multiflorum Lam. [1]): 5 (Herbicidal ratio of 90% or more (almost completely withered)); G: Setaria viridis, herbicidal effect grade (Setaria viridis): 5 (Herbicidal ratio of 90% or more (almost completely withered)); N: Amaranthus retroflexus, herbicidal effect grade (Amaranthus retroflexus): 5 (Herbicidal ratio of 90% or more (almost completely withered)); O: Chenopodium album, herbicidal effect grade (Chenopodium album [6]): 5 (Herbicidal ratio of 90% or more (almost completely withered)); F: Digitaria ciliaris, herbicidal effect grade (Digitaria ciliaris [7]): 5 (Herbicidal ratio of 90% or more (almost completely withered))
2 | COc1ccc(-c2cc(C)c(C3=C(O)CC(CC(C)=O)C3=O)c(C)c2)cc1 (stereo not shown) [7-006] | 0 (Herbicidal ratio of 5% or lower (almost no effect)) | 5 (Herbicidal ratio of 90% or more (almost completely withered)) | 3 (Herbicidal ratio of 40% or higher and lower than 70%) | 2 (Herbicidal ratio of 20% or higher and lower than 40%) | 0 (Herbicidal ratio of 5% or lower (almost no effect)) | 3 (Herbicidal ratio of 40% or higher and lower than 70%) | 5 (Herbicidal ratio of 90% or more (almost completely withered)) | 5 (Herbicidal ratio of 90% or more (almost completely withered)) | 5 (Herbicidal ratio of 90% or more (almost completely withered)) | 0 (Herbicidal ratio of 5% or lower (almost no effect)) | 0 (Herbicidal ratio of 5% or lower (almost no effect)) | 0 (Herbicidal ratio of 5% or lower (almost no effect)) | 2 (Herbicidal ratio of 20% or higher and lower than 40%) | 0 (Herbicidal ratio of 5% or lower (almost no effect)) | 0 (Herbicidal ratio of 5% or lower (almost no effect)) | 0 (Herbicidal ratio of 5% or lower (almost no effect)) | 0 (Herbicidal ratio of 5% or lower (almost no effect)) | –
3 | CON=C(C)CC1CC(OC(=O)C(C)CSC)=C(c2c(C)cc(-c3ccc(Cl)cc3)cc2C)C1=O (stereo not shown) [6-086] | 4 (Herbicidal ratio of 70% or higher and lower than 90%) | 5 (Herbicidal ratio of 90% or more (almost completely withered)) | 5 (Herbicidal ratio of 90% or more (almost completely withered)) | 5 (Herbicidal ratio of 90% or more (almost completely withered)) | 3 (Herbicidal ratio of 40% or higher and lower than 70%) | 5 (Herbicidal ratio of 90% or more (almost completely withered)) | 5 (Herbicidal ratio of 90% or more (almost completely withered)) | 5 (Herbicidal ratio of 90% or more (almost completely withered)) | 5 (Herbicidal ratio of 90% or more (almost completely withered)) | 4 (Herbicidal ratio of 70% or higher and lower than 90%) | 3 (Herbicidal ratio of 40% or higher and lower than 70%) | 2 (Herbicidal ratio of 20% or higher and lower than 40%) | 5 (Herbicidal ratio of 90% or more (almost completely withered)) | 5 (Herbicidal ratio of 90% or more (almost completely withered)) | 3 (Herbicidal ratio of 40% or higher and lower than 70%) | 3 (Herbicidal ratio of 40% or higher and lower than 70%) | 5 (Herbicidal ratio of 90% or more (almost completely withered)) | –
4 | CC(=O)C1CC(O)=C(c2c(C)cc(C)cc2C)C1=O (stereo not shown) [8-001] | – | – | – | 0 (Herbicidal ratio of 5% or lower (almost no effect)) | – | – | – | – | – | 0 (Herbicidal ratio of 5% or lower (almost no effect)) | – | 0 (Herbicidal ratio of 5% or lower (almost no effect)) | 0 (Herbicidal ratio of 5% or lower (almost no effect)) | 0 (Herbicidal ratio of 5% or lower (almost no effect)) | 0 (Herbicidal ratio of 5% or lower (almost no effect)) | 0 (Herbicidal ratio of 5% or lower (almost no effect)) | 0 (Herbicidal ratio of 5% or lower (almost no effect)) | P: Stellaria media, herbicidal effect grade (Stellaria media): 0 (Herbicidal ratio of 5% or lower (almost no effect)); M: Abutilon theophrasti, herbicidal effect grade (Abutilon theophrasti): 0 (Herbicidal ratio of 5% or lower (almost no effect)); H (Echinochloa crus-galli var. crus-galli) herbicidal effect grade ([2]; Table 24): 0 (Herbicidal ratio of 5% or lower (almost no effect)); J: Alopecurus myosuroides, herbicidal effect grade (Alopecurus myosuroides): 0 (Herbicidal ratio of 5% or lower (almost no effect)); f: beet, effect on crop grade (beet): 0 (Herbicidal ratio of 5% or lower (almost no effect)); O: Chenopodium album, herbicidal effect grade (Chenopodium album [3]): 0 (Herbicidal ratio of 5% or lower (almost no effect)); K: Lolium multiflorum Lam., herbicidal effect grade (Lolium multiflorum Lam. [4]): 1 (Herbicidal ratio of 5% or higher and lower than 20%); F: Digitaria ciliaris, herbicidal effect grade (Digitaria ciliaris [5]): 1 (Herbicidal ratio of 5% or higher and lower than 20%); b (directly sowed rice plant) effect on crop grade ([8]; Table 24): 0 (Herbicidal ratio of 5% or lower (almost no effect))

Source: patent US11000033B2, “Ketone or oxime compound, and herbicide” (NISSAN CHEMICAL CORPORATION, priority 2014, dated 2021)
